Results taken from ChEMBL document CHEMBL1130790, “Peptidyl human heart chymase inhibitors. 2. Discovery of highly selective difluoromethylene ketone derivatives with Glu at P3 site” (Bioorg Med Chem Lett, 1998).
Where a SMILES comes first, the peptide text is derived from it. The star is where a group is joined. Cbz = O=C(OCc1ccccc1)*

Assays:
Chymase = molecular target: T1, Chymase (Homo sapiens, UniProt P23946); experiment: Compound was evaluated for inhibitory activity against human heart chymase (HHC)
T1 sequence (P23946 whole entry): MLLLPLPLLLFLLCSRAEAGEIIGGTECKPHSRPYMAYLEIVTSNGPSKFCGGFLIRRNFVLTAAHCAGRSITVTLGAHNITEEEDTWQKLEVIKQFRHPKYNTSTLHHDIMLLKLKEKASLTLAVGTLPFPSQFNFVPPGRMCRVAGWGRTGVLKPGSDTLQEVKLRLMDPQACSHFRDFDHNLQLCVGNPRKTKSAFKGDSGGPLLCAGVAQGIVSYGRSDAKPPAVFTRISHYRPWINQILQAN

[1] = Selectivity ratio of Bovine chymotrypsin (BCT-Ki) to human heart chymase (HHC-Ki)

CC(C)(C)OC(=O)NC(CCC(=O)O)C(=O)N1CCC[C@H]1C(=O)NC(Cc1ccccc1)C(=O)C(F)(F)C(=O)Nc1cccc(CC(=O)O)c1 (stereo partly specified)
Ki (Chymase): 0.0067 µM
Ratio [1]: 590

CC(C)(C)OC(=O)NC(CCC(=O)O)C(=O)N1CCC[C@H]1C(=O)NC(Cc1ccccc1)C(=O)C(F)(F)C(=O)Nc1cccc(C(N)=O)c1 (stereo partly specified)
Ki (Chymase): 0.0211 µM
Ratio [1]: 58

CC(C)(C)OC(=O)NC(CCC(=O)O)C(=O)N1CCC[C@H]1C(=O)NC(Cc1ccccc1)C(=O)C(F)(F)C(=O)Nc1cc(C(=O)O)c2ccccc2c1 (stereo partly specified)
Ki (Chymase): 0.0142 µM

CC(C)(C)OC(=O)NC(CCC(=O)O)C(=O)N1CCC[C@H]1C(=O)NC(Cc1ccccc1)C(=O)C(F)(F)C(=O)Nc1cc(C(=O)O)cs1 (stereo partly specified)
Ki (Chymase): 0.006 µM
Ratio [1]: > 16700

CC(C)(C)OC(=O)NC(CC(=O)O)C(=O)N1CCC[C@H]1C(=O)NC(Cc1ccccc1)C(=O)C(F)(F)C(=O)Nc1cccc(C(=O)O)c1 (stereo partly specified)
Ki (Chymase): 0.0366 µM
Ratio [1]: 2730

CC(C)C(NC(=O)OC(C)(C)C)C(=O)N1CCC[C@H]1C(=O)NC(Cc1ccccc1)C(=O)C(F)(F)C(=O)Nc1cccc(C(=O)O)c1 (stereo partly specified)
Ki (Chymase): 0.0056 µM

CC[C@H](C)[C@H](NC(=O)OCc1ccccc1)C(=O)N[C@@H](CCC(=O)O)C(=O)N1CCC[C@H]1C(=O)N[C@@H](Cc1ccccc1)C(=O)OC (Cbz-IEPF-OMe)
Ki (Chymase): 0.003 µM

CC(C)(C)OC(=O)NC(CCC(=O)O)C(=O)N1CCC[C@H]1C(=O)NC(Cc1ccccc1)C(=O)C(F)(F)C(=O)Nc1cccc(C(=O)O)c1 (stereo partly specified)
Ki (Chymase): 0.0039 µM
Ratio [1]: 332

CCCCNS(=O)(=O)c1cccc(NC(=O)C(F)(F)C(=O)C(Cc2ccccc2)NC(=O)[C@@H]2CCCN2C(=O)C(CCC(=O)O)NC(=O)OC(C)(C)C)c1 (stereo partly specified)
Ki (Chymase): 0.0228 µM

CC(C)(C)OC(=O)NC(CCC(=O)O)C(=O)N1CCC[C@H]1C(=O)NC(Cc1ccccc1)C(=O)C(F)(F)C(=O)Nc1cccc(S(N)(=O)=O)c1 (stereo partly specified)
Ki (Chymase): 0.0275 µM
Ratio [1]: 38
